Measured values published in patent US20100069499A1 (priority 2007, published 2010).

Assays:
Fusarium culmorum = assay: Test of preventive effect on wheat Fusarium blight; assay type: in vivo; conditions: wheat (Shirogane), foliage application 500 ppm, 4 days darkness and high humidity at 23° C. then 3 days lighting
Procedure: (§1) The controlling effect was evaluated by visually observing the area or a lesion spots on each of test plants at the time of investigation and comparing the area of lesion spots on a plant treated with the compound of the present invention with that on an untreated plant.
Each of plastic pots was filled with sandy loam and sown with wheat (cultivar; Shirogane), followed by growing in a greenhouse for 10 days. The compound 1 of the present invention was formulated into a flowable formulation according to Formulation Example 6. The flowable formulation was diluted to a predetermined concentration (500 ppm) with water, and foliage application of the dilution was carried out so that the dilution adhered sufficiently to the surfaces of leaves of the grown wheat young seedling. After the foliage application, the plant was air-dried and then inoculated by spraying a water suspension of spores of Fusarium culmorum. After the inoculation, the plant was held under darkness and high humidity conditions at 23° C. for 4 days and held under lighting conditions for 3 days, and then the area of lesion spots was investigated.

Sclerotinia sclerotiorum = assay: Test of preventive effect on cucumber stem rot; assay type: in vivo; conditions: cucumber (Sagamihanjiro), foliage application 500 ppm, 4 days at 18° C. and high humidity
Procedure: as §1
Each of plastic pots was filled with sandy loam and sown with cucumber (variety; Sagamihanjiro), followed by growing in a greenhouse for 12 days. The compound 2 of the present invention was formulated into a flowable formulation according to Formulation Example 6. The flowable formulation was diluted to a predetermined concentration (500 ppm) with water, and foliage application of the dilution was carried out so that the dilution adhered sufficiently to the surfaces of leaves of the grown cucumber young seedling. After the foliage application, the plant was air-dried and a PDA medium containing mycelia of Sclerotinia sclerotiorum was placed on the surfaces of the cucumber leaves. After the inoculation, the plant was grown at 18° C. and high humidity for 4 days. Then, the area of lesion spots was investigated.

## C#CCOc1c(F)cc(C(=O)NCC2CCCCC2)cc1Cl [compound 1, N-(cyclohexylmethyl)-3-chloro-5-fluoro-4-(2-propynyloxy)benzamide]
Fusarium culmorum
  area of lesion spots on the treated plant relative to that on an untreated plant: ≤ 30%

## C#CCOc1c(F)cc(C(=O)NC2CCCCC2C)cc1Cl (centres unmarked) [compound 2, N-(2-methylcyclohexyl)-3-chloro-5-fluoro-4-(2-propynyloxy)benzamide]
Sclerotinia sclerotiorum
  area of lesion spots on the treated plant relative to that on an untreated plant: ≤ 30%
